Measured values: ChEMBL document CHEMBL4411276, “Chemistry-oriented synthesis (ChOS) and target deconvolution on neuroprotective effect of a novel scaffold, oxaza spiroquinone” (Eur J Med Chem, 2019)

Key:
[1] = Cytotoxicity against LPS-stimulated mouse BV2 cells assessed as cell survival after 24 hrs by MTT assay relative to control; assay type: cell-based, BV-2; parameters: concentration or dose not given beside the values; settings: read-out: Survival
[2] = Cytotoxicity against mouse BV2 cells assessed as cell survival after 24 hrs by MTT assay relative to control; assay type: cell-based, BV-2; parameters: concentration or dose not given beside the values; settings: read-out: Survival
BV-2 = experiment: Anti-inflammatory activity in mouse BV2 cells assessed as reduction in LPS-induced NO production pre-treated before LPS stimulation for 24 hrs by Griess reagent-based assay; assay type: functional, cell-based

Row | Compound | viability at 24 h [1] | viability at 24 h [2] | IC50 (BV-2)
1 | Cc1cc(C)cc(CC2COC3(C=CC(=O)C=C3)N(c3ccccc3)C2=O)c1 (stereo unspecified) | 78% | 94.2% | 1820 nM
2 | O=C1C=CC2(C=C1)OCC(Cc1ccc(Cl)cc1)C(=O)N2c1ccccc1 (stereo unspecified) | 79% | 91% | 540 nM
3 | C=C(C)CC1COC2(C=CC(=O)C=C2)N(c2ccccc2)C1=O (stereo unspecified) | 80.1% | 91.4% | 450 nM
4 | O=C1C=CC2(C=C1)OCC(Cc1ccc(Br)cc1)C(=O)N2c1ccccc1 (stereo unspecified) | 72% | 82.7% | 1380 nM
5 | C=CCCC1COC2(C=CC(=O)C=C2)N(c2ccccc2)C1=O (stereo unspecified) | 80.4% | 89% | 730 nM
6 | O=C1C=CC2(C=C1)OCC(Cc1ccc(C(F)(F)F)cc1[N+](=O)[O-])C(=O)N2c1ccccc1 (stereo unspecified) |  |  | 970 nM
7 | CNC(=N)NCCC[C@H](N)C(=O)O [TILARGININE] | 60.5% |  | 16000 nM
8 | O=C1C=CC2(C=C1)OCC(Cc1ccc([N+](=O)[O-])cc1)C(=O)N2c1ccccc1 (stereo unspecified) | 82.7% | 95.5% | 430 nM
9 | O=C1C=CC2(C=C1)OCC(Cc1c(F)cccc1C(F)(F)F)C(=O)N2c1ccccc1 (stereo unspecified) | 71.1% | 84.4% | 600 nM
10 | CC1COC2(C=CC(=O)C=C2)N(c2ccccc2)C1=O (stereo unspecified) | 72.8% | 86.1% | 1220 nM
11 | C=CCC1COC2(C=CC(=O)C=C2)N(c2ccccc2)C1=O (stereo unspecified) | 84.6% | 89.7% | 1030 nM
12 | O=C1C=CC2(C=C1)OCC(Cc1ccccc1CS(=O)(=O)c1ccccc1)C(=O)N2c1ccccc1 (stereo unspecified) | 84.3% | 97.5% | 980 nM
13 | O=C1C=CC2(C=C1)OCC(Cc1ccc(F)cc1)C(=O)N2c1ccccc1 (stereo unspecified) | 85.2% | 82.9% | 400 nM
14 | O=C1C=CC2(C=C1)OCC(Cc1ccc(C(F)(F)F)cc1)C(=O)N2c1ccccc1 (stereo unspecified) | 84.1% | 87.1% | 1650 nM
15 | O=C1C=CC2(C=C1)OCC(Cc1cccc(Br)c1)C(=O)N2c1ccccc1 (stereo unspecified) | 74% | 96% | 540 nM
16 | O=C1C=CC2(C=C1)OCC(Cc1ccccc1)C(=O)N2c1ccccc1 (stereo unspecified) | 76.1% | 82.1% | 570 nM
17 | O=C1C=CC2(C=C1)OCCC(=O)N2c1ccccc1 | 79.8% | 102% | 1300 nM
18 | O=C1C=CC2(C=C1)OCC(Cc1cc(C(F)(F)F)ccc1Cl)C(=O)N2c1ccccc1 (stereo unspecified) | 64.4% | 70.5% | 770 nM
